Measured values reported in US10392391B2 (Vertex Pharmaceuticals Incorporated, priority 2012, dated 2019).
Where two headings read alike, the source gives them in different places.

Molecular target: ATR kinase (full-length ATR) (Homo sapiens (Human), UniProt Q13535)
Experiment: ATR inhibition assay (radioactive-phosphate incorporation)
Type: biochemical
In short: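 Radiometric 33P incorporation by 5 nM full-length ATR into 800 μM target peptide with 10 μM [γ-33P]ATP, in 50 mM Tris/HCl pH 7.5, 10 mM MgCl2, 1 mM DTT, 7% DMSO, 25° C. Compound pre-incubated 10 minutes; reaction stopped after 24 hours, captured on phosphocellulose. Ki(app) from non-linear regression of initial rates.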

[1] = Ki(app), 5 nM full-length ATR, 10 μM ATP, 25° C.

ATR kinase (full-length ATR), sequence (Q13535 whole entry): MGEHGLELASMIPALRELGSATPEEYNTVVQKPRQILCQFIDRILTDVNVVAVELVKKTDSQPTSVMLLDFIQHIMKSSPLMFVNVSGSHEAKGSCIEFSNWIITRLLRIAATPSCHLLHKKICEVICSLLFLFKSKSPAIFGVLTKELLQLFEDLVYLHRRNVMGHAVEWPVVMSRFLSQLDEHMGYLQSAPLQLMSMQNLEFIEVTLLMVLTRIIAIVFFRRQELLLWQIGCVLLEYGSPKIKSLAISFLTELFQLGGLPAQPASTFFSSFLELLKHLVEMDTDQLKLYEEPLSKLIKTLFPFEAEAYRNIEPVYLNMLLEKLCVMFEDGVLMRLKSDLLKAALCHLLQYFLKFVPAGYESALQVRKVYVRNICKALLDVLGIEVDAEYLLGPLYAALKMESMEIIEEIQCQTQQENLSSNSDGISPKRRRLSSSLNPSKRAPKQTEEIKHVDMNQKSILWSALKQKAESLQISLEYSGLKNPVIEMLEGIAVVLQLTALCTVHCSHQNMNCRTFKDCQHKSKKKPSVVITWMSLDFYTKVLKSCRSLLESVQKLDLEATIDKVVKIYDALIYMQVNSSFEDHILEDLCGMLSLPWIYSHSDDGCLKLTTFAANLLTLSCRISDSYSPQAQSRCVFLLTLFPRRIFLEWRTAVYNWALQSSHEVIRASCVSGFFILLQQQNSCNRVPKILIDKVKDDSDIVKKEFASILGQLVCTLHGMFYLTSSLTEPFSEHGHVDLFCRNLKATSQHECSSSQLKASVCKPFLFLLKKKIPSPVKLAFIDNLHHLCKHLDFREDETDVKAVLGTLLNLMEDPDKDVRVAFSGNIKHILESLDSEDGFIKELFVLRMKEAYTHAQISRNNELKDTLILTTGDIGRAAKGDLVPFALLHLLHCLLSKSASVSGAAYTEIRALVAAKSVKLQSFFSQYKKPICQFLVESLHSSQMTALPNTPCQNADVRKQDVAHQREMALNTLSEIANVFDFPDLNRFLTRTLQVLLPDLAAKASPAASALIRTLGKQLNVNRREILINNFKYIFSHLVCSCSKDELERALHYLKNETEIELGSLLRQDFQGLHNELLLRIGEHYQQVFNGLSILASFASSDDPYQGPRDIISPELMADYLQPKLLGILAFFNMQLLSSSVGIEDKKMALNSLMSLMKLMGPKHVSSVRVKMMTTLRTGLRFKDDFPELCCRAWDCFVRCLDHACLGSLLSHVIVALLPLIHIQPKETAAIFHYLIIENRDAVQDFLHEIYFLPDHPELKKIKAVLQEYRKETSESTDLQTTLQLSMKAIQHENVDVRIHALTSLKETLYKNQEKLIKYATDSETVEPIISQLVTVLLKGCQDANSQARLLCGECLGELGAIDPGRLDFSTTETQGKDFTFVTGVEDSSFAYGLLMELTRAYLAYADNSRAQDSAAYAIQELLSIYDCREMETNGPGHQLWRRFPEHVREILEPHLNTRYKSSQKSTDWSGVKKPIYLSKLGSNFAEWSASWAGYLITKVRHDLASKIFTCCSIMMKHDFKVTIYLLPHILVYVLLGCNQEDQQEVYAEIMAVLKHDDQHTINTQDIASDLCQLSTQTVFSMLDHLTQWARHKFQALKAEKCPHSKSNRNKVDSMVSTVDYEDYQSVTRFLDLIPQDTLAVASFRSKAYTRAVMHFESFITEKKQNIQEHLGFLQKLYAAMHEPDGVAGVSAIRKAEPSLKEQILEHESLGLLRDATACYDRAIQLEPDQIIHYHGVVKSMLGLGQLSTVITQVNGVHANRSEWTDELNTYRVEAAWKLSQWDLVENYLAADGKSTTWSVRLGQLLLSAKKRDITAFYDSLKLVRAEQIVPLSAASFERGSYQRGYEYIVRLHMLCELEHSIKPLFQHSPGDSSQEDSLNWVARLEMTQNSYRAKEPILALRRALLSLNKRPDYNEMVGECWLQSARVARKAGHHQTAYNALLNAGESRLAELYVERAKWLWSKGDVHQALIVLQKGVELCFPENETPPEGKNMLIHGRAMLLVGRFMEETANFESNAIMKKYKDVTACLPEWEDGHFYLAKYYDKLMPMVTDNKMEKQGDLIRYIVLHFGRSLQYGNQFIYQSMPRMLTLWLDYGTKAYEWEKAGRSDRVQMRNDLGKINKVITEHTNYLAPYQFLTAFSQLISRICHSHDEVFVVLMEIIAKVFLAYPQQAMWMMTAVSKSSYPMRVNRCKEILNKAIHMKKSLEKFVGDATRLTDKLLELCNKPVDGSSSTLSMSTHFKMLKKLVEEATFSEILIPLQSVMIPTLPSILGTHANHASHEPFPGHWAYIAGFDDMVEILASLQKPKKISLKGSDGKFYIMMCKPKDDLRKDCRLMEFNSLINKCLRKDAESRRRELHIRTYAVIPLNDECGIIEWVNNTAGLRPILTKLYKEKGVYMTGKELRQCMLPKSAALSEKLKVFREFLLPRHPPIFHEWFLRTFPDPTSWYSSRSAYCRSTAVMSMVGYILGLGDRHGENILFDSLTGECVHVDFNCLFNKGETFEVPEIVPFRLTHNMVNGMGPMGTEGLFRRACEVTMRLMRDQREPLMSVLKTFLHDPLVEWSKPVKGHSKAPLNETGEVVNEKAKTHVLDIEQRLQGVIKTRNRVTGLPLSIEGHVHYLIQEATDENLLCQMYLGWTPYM

Row | Structure (SMILES) | Ki [1] [µM] | Ki [µM]
1 | Nc1nn2cc(F)cnc2c1C(=O)Nc1cncc(F)c1N1CCC(C(=O)N2CCN3CC[C@H]2C3)CC1 [I-G-70, N-(4-(4-((5S)-1,4-diazabicyclo[3.2.1]octane-4-carbonyl)piperidin-1-yl)-5-fluoropyridin-3-yl)-2-amino-6-fluoropyrazolo[1,5-a]pyrimidine-3-carboxamide] | 0.01 to 1 | –
2 | Nc1nn2cc(F)cnc2c1C(=O)Nc1cncc(F)c1N1CCN2C(=O)OC[C@@H]2C1 [I-N-248, (S)-2-amino-6-fluoro-N-(5-fluoro-4-(3-oxotetrahydro-1H-oxazolo[3,4-a]pyrazin-7(3H)-yl)pyridin-3-yl)pyrazolo[1,5-a]pyrimidine-3-carboxamide] | 0.01 to 1 | –
3 | CN1CC2CN(C(=O)C3CCN(c4c(F)cncc4NC(=O)c4c(N)nn5cc(F)cnc45)CC3)CC2C1 (stereo not drawn) [I-G-18, 2-amino-6-fluoro-N-(5-fluoro-4-(4-(5-methyloctahydropyrrolo[3,4-c]pyrrole-2-carbonyl)piperidin-1-yl)pyridin-3-yl)pyrazolo[1,5-a]pyrimidine-3-carboxamide] | – | 0.01 to 1
4 | Nc1nn2cc(F)cnc2c1C(=O)Nc1cnccc1-c1ccc(C(=O)N2CCN(C3COC3)CC2)cc1F [I-C-51, 2-amino-6-fluoro-N-(4-(2-fluoro-4-(4-(oxetan-3-yl)piperazine-1-carbonyl)phenyl)pyridin-3-yl)pyrazolo[1,5-a]pyrimidine-3-carboxamide] | 0.01 to 1 | –
5 | CN1CCC[C@H]1C(=O)N1CCN(c2c(F)cncc2NC(=O)c2c(N)nn3cc(F)cnc23)CC1 [I-N-157, (S)-2-amino-6-fluoro-N-(5-fluoro-4-(4-(1-methylpyrrolidine-2-carbonyl)piperazin-1-yl)pyridin-3-yl)pyrazolo[1,5-a]pyrimidine-3-carboxamide] | 0.01 to 1 | –
6 | CCOC1CN(C(=O)C2CCN(c3ccncc3NC(=O)c3c(N)nn4cc(F)cnc34)CC2)C1 [I-G-91, 2-amino-N-(4-(4-(3-ethoxyazetidine-1-carbonyl)piperidin-1-yl)pyridin-3-yl)-6-fluoropyrazolo[1,5-a]pyrimidine-3-carboxamide] | 0.01 to 1 | –
7 | Nc1nn2cc(F)cnc2c1C(=O)Nc1cncc(F)c1N1CC(=O)N2CCCC2C1 (stereo not drawn) [I-N-232, 2-amino-6-fluoro-N-(5-fluoro-4-(4-oxohexahydropyrrolo[1,2-a]pyrazin-2(1H)-yl)pyridin-3-yl)pyrazolo[1,5-a]pyrimidine-3-carboxamide] | 0.01 to 1 | –
8 | CN1CCC(C(=O)N2CC=C(c3c(F)cncc3NC(=O)c3c(N)nn4cc(F)cnc34)CC2)CC1 [I-C-38, 2-amino-6-fluoro-N-(5-fluoro-1′-(1-methylpiperidine-4-carbonyl)-1′,2′,3′,6′-tetrahydro-[4,4′-bipyridin]-3-yl)pyrazolo[1,5-a]pyrimidine-3-carboxamide] | 0.01 to 1 | –
9 | CS(=O)(=O)C1CCN(c2c(F)cncc2NC(=O)c2c(N)nn3cc(F)cnc23)CC1 [I-N-165, 2-amino-6-fluoro-N-(5-fluoro-4-(4-(methylsulfonyl)piperidin-1-yl)pyridin-3-yl)pyrazolo[1,5-a]pyrimidine-3-carboxamide] | 0.01 to 1 | –
10 | Nc1nn2cc(F)cnc2c1C(=O)Nc1cncc(Cl)c1N1CCC(C(=O)N2CCN3CCC2C3)CC1 (stereo not drawn) [I-G-69, N-(4-(4-(1,4-diazabicyclo[3.2.1]octane-4-carbonyl)piperidin-1-yl)-5-chloropyridin-3-yl)-2-amino-6-fluoropyrazolo[1,5-a]pyrimidine-3-carboxamide] | 0.01 to 1 | –
11 | Nc1nn2cc(F)cnc2c1C(=O)Nc1cnccc1N1CCN(C(=O)C2COC2)CC1 [I-N-249] | 0.01 to 1 | –
12 | Nc1nn2cc(F)cnc2c1C(=O)Nc1cncc(F)c1N1CCCCC1 [I-N-270, 2-amino-6-fluoro-N-(5-fluoro-4-(piperidin-1-yl)pyridin-3-yl)pyrazolo[1,5-a]pyrimidine-3-carboxamide] | 0.01 to 1 | –
13 | Nc1nn2cc(F)cnc2c1C(=O)Nc1cncc(F)c1N1CCN(C(=O)C2CNC2)CC1 [I-N-168, 2-amino-N-(4-(4-(azetidine-3-carbonyl)piperazin-1-yl)-5-fluoropyridin-3-yl)-6-fluoropyrazolo[1,5-a]pyrimidine-3-carboxamide] | 0.01 to 1 | –
14 | Nc1nn2cc(F)cnc2c1C(=O)Nc1cncc(F)c1N1CCN(C(=O)CN2CCCC2)CC1 [I-N-187, 2-amino-6-fluoro-N-(5-fluoro-4-(4-(2-(pyrrolidin-1-yl)acetyl)piperazin-1-yl)pyridin-3-yl)pyrazolo[1,5-a]pyrimidine-3-carboxamide] | 0.01 to 1 | –
15 | COCCS(=O)(=O)C1CCN(c2ccncc2NC(=O)c2c(N)nn3cc(F)cnc23)CC1 [I-N-208, 2-amino-6-fluoro-N-(4-(4-((2-methoxyethyl)sulfonyl)piperidin-1-yl)pyridin-3-yl)pyrazolo[1,5-a]pyrimidine-3-carboxamide] | 0.01 to 1 | –

More lines, now with the values ahead:

Row | Ki [1] [µM] | Ki [µM] | Structure (SMILES)
16 | 0.01 to 1 | – | Nc1nn2cc(Cl)cnc2c1C(=O)Nc1cnccc1-n1ccnc1 [I-N-29, N-(4-(1H-imidazol-1-yl)pyridin-3-yl)-2-amino-6-chloropyrazolo[1,5-a]pyrimidine-3-carboxamide]
17 | 0.01 to 1 | – | Nc1nn2cc(Cl)cnc2c1C(=O)Nc1cnccc1O[C@H]1CCOC1 [I-O-58, (S)-2-amino-6-chloro-N-(4-((tetrahydrofuran-3-yl)oxy)pyridin-3-yl)pyrazolo[1,5-a]pyrimidine-3-carboxamide]
18 | < 0.01 | – | NCC1CCN(c2ccncc2NC(=O)c2c(N)nn3cc(Cl)cnc23)CC1 [I-N-91, 2-amino-N-(4-(4-(aminomethyl)piperidin-1-yl)pyridin-3-yl)-6-chloropyrazolo[1,5-a]pyrimidine-3-carboxamide]
19 | 0.01 to 1 | – | Nc1nn2cc(Cl)cnc2c1C(=O)Nc1cnccc1N1CCC(N2CCn3ccnc3C2)CC1 [I-N-102, 2-amino-6-chloro-N-(4-(4-(5,6-dihydroimidazo[1,2-a]pyrazin-7(8H)-yl)piperidin-1-yl)pyridin-3-yl)pyrazolo[1,5-a]pyrimidine-3-carboxamide]
20 | 0.01 to 1 | – | Nc1nn2cc(F)cnc2c1C(=O)Nc1cnccc1N1CCN2CCOC[C@H]2C1 [I-N-116, (R)-2-amino-6-fluoro-N-(4-(hexahydropyrazino[2,1-c][1,4]oxazin-8(1H)-yl)pyridin-3-yl)pyrazolo[1,5-a]pyrimidine-3-carboxamide]
21 | < 0.01 | – | N#CCc1cnc2c(C(=O)Nc3cnccc3O[C@H]3CCOC3)c(N)nn2c1 [I-O-42, (S)-2-amino-6-(cyanomethyl)-N-(4-((tetrahydrofuran-3-yl)oxy)pyridin-3-yl)pyrazolo[1,5-a]pyrimidine-3-carboxamide]
22 | 0.01 to 1 | – | Cc1nonc1N1CCN(c2ccncc2NC(=O)c2c(N)nn3cc(F)cnc23)CC1 [I-N-260, 2-amino-6-fluoro-N-(4-(4-(4-methyl-1,2,5-oxadiazol-3-yl)piperazin-1-yl)pyridin-3-yl)pyrazolo[1,5-a]pyrimidine-3-carboxamide]
23 | 0.01 to 1 | – | Nc1nn2cc(Cl)cnc2c1C(=O)Nc1cnccc1Oc1cccnc1 [I-O-70, 2-amino-6-chloro-N-(4-(pyridin-3-yloxy)pyridin-3-yl)pyrazolo[1,5-a]pyrimidine-3-carboxamide]
24 | 0.01 to 1 | – | Nc1nn2cc(Cl)cnc2c1C(=O)Nc1cnccc1N1CCC(N2CCCC2)CC1 [I-N-105, 2-amino-6-chloro-N-(4-(4-(pyrrolidin-1-yl)piperidin-1-yl)pyridin-3-yl)pyrazolo[1,5-a]pyrimidine-3-carboxamide]
25 | 0.01 to 1 | – | Nc1nn2cc(F)cnc2c1C(=O)Nc1cnccc1N1CCN2C(=O)OCC2C1 (stereo not drawn) [I-N-238, 2-amino-6-fluoro-N-(4-(3-oxotetrahydro-1H-oxazolo[3,4-a]pyrazin-7(3H)-yl)pyridin-3-yl)pyrazolo[1,5-a]pyrimidine-3-carboxamide]
26 | 0.01 to 1 | – | COCCN1CCN(c2ccncc2NC(=O)c2c(N)nn3cc(Cl)cnc23)CC1 [I-N-60, 2-amino-6-chloro-N-(4-(4-(2-methoxyethyl)piperazin-1-yl)pyridin-3-yl)pyrazolo[1,5-a]pyrimidine-3-carboxamide]
27 | 0.01 to 1 | – | Cc1ncn(C)c1-c1ccncc1NC(=O)c1c(N)nn2cc(F)cnc12 [I-C-78, 2-amino-N-(4-(1,4-dimethyl-1H-imidazol-5-yl)pyridin-3-yl)-6-fluoropyrazolo[1,5-a]pyrimidine-3-carboxamide]
28 | 0.01 to 1 | – | CN(C)Cc1ccc(Oc2ccncc2NC(=O)c2c(N)nn3cc(F)cnc23)cn1 [I-O-3, 2-amino-N-(4-((6-((dimethylamino)methyl)pyridin-3-yl)oxy)pyridin-3-yl)-6-fluoropyrazolo[1,5-a]pyrimidine-3-carboxamide]
29 | – | 1 to 5 | CN(C)[C@H]1CCN(c2ccncc2NC(=O)c2c(N)nn3cc(Cl)cnc23)C[C@@H]1O [I-N-35, 2-amino-6-chloro-N-(4-((3S,4S)-4-(dimethylamino)-3-hydroxypiperidin-1-yl)pyridin-3-yl)pyrazolo[1,5-a]pyrimidine-3-carboxamide]
30 | 0.01 to 1 | – | CN(C)C(=O)C1CCCN(c2ccncc2NC(=O)c2c(N)nn3cc(F)cnc23)C1 (stereo not drawn) [I-N-290, 2-amino-N-(4-(3-(dimethylcarbamoyl)piperidin-1-yl)pyridin-3-yl)-6-fluoropyrazolo[1,5-a]pyrimidine-3-carboxamide]
31 | 0.01 to 1 | – | CN(C)C(=O)C1CN(c2ccncc2NC(=O)c2c(N)nn3cc(F)cnc23)CCO1 (stereo not drawn) [I-N-234, 4-(3-(2-amino-6-fluoropyrazolo[1,5-a]pyrimidine-3-carboxamido)pyridin-4-yl)-N,N-dimethylmorpholine-2-carboxamide]
32 | 0.01 to 1 | – | CN1CCN(C(=O)c2ccc(-c3ccncc3NC(=O)c3c(N)nn4cc(F)cnc34)cn2)CC1 [I-C-19, 2-amino-6-fluoro-N-(6-(4-methylpiperazine-1-carbonyl)-[3,4′-bipyridin]-3′-yl)pyrazolo[1,5-a]pyrimidine-3-carboxamide]
33 | – | 1 to 5 | CN1CCC(c2c(F)cncc2NC(=O)c2c(N)nn3cc(F)cnc23)CC1 [I-C-14, 2-amino-6-fluoro-N-(5-fluoro-4-(1-methylpiperidin-4-yl)pyridin-3-yl)pyrazolo[1,5-a]pyrimidine-3-carboxamide]
